Tests used:
[1] = test system: 5TMM3VT mouse myeloma cells; experiment: 5TMM3VT mouse model; assay type: in vivo, C57BL/KaLwRij mice; conditions: single treatment; BBA 5 mg/kg, BTZ 1 mg/kg
Experimental: 5TMM3VT mouse myeloma cells (1 × 10^6) were injected through the tail vein into C57BL/KaLwRij mice from Harlan Laboratories (n = 9 per group). The mice were randomly divided into four groups (Ctrl, BBA, BTZ and BBA+BTZ combination groups). On the third day after modeling, oral administration of PBS, BBA (5 mg/kg) and BTZ (1 mg/kg) was performed twice a week, while combination therapy was administered every other day.

[2] = test system: MM PDX tumor; experiment: MM patient-derived tumor xenograft (PDX) model; assay type: in vivo, NOD/SCID mice; conditions: IHC and IF, single treatment
Experimental: The biopsy sample was taken from tumor tissue excised from MM patient at Nanjing Hospital of Chinese Medicine affiliated with Nanjing University of Chinese Medicine. The tissue was then cut into 2.5×2.5×2.5 mm^3 pieces and transplanted subcutaneously into 6-week-old NOD/SCID male mice (n = 6 mice in each group) under anesthesia with 1% sodium pentobarbital. […] This process was repeated three times to ensure stable tumor growth. […] Single treatment was administered every three days, while combination treatment was administered every other day.

[3] = test system: ARP1 cells; experiment: MTT proliferation assay, ARP1 cells; assay type: cell-based, human; conditions: ARP1 WT; Table 2 prints no cell line, its BBA value equals the ARP1 IC50 of b29
[4] = molecular target: T1, c-Maf protein (Homo sapiens, UniProt O75444); experiment: Surface plasmon resonance (SPR) binding to c-Maf protein; conditions: values given in mM; read-out: SPR dissociation constant (Kd)
T1 construct: made in house; host or cells: prokaryotic (pET-28a vector)
T1 sequence (O75444 1-373): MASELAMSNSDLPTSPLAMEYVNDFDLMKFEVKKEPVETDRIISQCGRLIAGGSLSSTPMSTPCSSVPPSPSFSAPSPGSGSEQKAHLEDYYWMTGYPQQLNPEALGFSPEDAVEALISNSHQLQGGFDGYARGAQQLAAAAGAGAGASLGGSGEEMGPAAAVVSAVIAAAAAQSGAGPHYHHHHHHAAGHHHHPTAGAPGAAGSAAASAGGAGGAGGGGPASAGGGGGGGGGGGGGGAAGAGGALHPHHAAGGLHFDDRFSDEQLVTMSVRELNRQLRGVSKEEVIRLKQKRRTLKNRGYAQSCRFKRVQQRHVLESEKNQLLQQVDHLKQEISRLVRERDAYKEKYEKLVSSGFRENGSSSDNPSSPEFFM

[5] = molecular target: T1, c-Maf protein; experiment: Microscale thermophoresis (MST) binding to c-Maf protein; conditions: labelled purified c-Maf protein; read-out: MST dissociation constant (Kd)
Experimental: To determine if the screened compound interacts with the c-Maf protein, we used a MonolithTM RED-NHS second generation protein labelling kit (NanoTemper Germany) to fluorescently label 10 µM of purified c-Maf protein. We then mixed various concentrations of the drug with an equal concentration of c-Maf protein and incubated the mixture for 5 min at room temperature. The mixture was then aspirated with a capillary tube and the binding capacity was measured using a new generation biomolecular interaction assay (NanoTemper Germany). The Kd values were calculated using analytical software.

Row | Compound | Survival time of 5TMM3VT mice [1] | Expression of c-Maf, Ki67, RNA Pol II, Mtbp, c-Myc and c-Maf/RNA Pol II co-localization in tumors [2] | MTT IC50 [3] | Kd [4] [mM] | Kd [5] [µM]
1 | CC(C)C[C@H](NC(=O)[C@H](Cc1ccccc1)NC(=O)c1cnccn1)B(O)O [BTZ, bortezomib] | significantly improved | inhibited | – | – | –
2 | Chlorophenylacetamide | – | – | Unstable | 3.31 | 555
